Laboratory results published in publication PMC11687724, “Mechanism of connexin channel inhibition by mefloquine and 2-aminoethoxydiphenyl borate” (PLOS ONE, 2024).

Key:
Cx32 [1] = molecular target: T1, Cx32 (Homo sapiens, UniProt P08034); experiment: biochemical; set-up: gene GJB1
Cx32 [2] = molecular target: T1, Cx32; experiment: tryptophan fluorescence quenching; cryo-EM of Cx32 GJC at […] Å; dye uptake and gap-FRAP; format: binding; set-up: gene GJB1; purified Cx32 (gap junction channel)
Cx43 = molecular target: T2, Cx43 (Homo sapiens, UniProt P17302); experiment: cryo-EM of Cx43 GJC at […] Å; gap-FRAP in HEK293F cells; format: binding
T2 construct: gene GJA1; Cx43 gap junction channel
T2 sequence (P17302 2-382): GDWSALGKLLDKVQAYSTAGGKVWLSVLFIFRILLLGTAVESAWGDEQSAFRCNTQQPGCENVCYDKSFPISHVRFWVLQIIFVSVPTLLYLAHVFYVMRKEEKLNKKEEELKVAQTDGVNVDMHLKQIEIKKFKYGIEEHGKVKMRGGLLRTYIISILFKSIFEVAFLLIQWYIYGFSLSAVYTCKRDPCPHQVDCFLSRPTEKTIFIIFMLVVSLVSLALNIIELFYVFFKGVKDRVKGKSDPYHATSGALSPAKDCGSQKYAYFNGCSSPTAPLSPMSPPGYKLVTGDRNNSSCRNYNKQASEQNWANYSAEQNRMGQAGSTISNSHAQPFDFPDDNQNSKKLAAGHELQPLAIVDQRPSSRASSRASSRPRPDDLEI

T1 sequence (P08034 whole entry): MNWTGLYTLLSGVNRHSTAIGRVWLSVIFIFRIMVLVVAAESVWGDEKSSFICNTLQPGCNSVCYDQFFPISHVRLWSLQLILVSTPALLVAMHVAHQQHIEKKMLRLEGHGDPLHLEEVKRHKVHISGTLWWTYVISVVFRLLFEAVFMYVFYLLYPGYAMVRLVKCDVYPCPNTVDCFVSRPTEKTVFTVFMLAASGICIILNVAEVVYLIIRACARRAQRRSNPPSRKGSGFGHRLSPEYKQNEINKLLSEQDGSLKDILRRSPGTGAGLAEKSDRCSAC

| SMILES | Kd (Cx32 [1]) [µM] | Kd (Cx32 [2]) [µM] | cryo-EM of Cx43 GJC at 3.7 Å; gap-FRAP in HEK293F cells (Cx43) |
| --- | --- | --- | --- |
| NCCOB(c1ccccc1)c1ccccc1 [2APB, 2-aminoethoxydiphenyl borate] | 1.05 | – | – |
| O[C@H](c1cc(C(F)(F)F)nc2c(C(F)(F)F)cccc12)[C@@H]1CCCCN1 (racemic) [MFQ, mefloquine] | – | 43.1 | a prominent additional density corresponding to MFQ was observed within the region corresponding to site M |
